Here are results for one compound from patent US20050038113A1, “Valproic acid and derivatives for the combinatorial therapeutic treatment of human cancers and for the treatment of tumor metastasis and minimal residual disease” (G2M Cancer Drugs AG, priority 2001, published 2005).

Series [1] relates to Renca-lacZ cells. The experiment in a line: in vivo mouse model of renal carcinoma lung metastasis (X-Gal staining). Particulars: 2×400 mg/kg/day i.p. Na-VPA; Renca-lacZ cells into tail vein; vs glucose solution. On the set-up: species or system Balb/c mice. An excerpt: Mouse renal carcinoma cells (Renca) were established from a spontaneously arising kidney tumor in Balb/c mice. These cells efficiently form tumors in the lung upon transplantation into Balb/c mice through the tail vein and the tumorigenic properties of Renca cells have been well established (Murphy, et al., 1973, J. Natl. Cancer Inst., 50: 1013-1025; Hrushesky et al., 1973, J. Surg. Res., 15: 327-332; Williams et al., 1981, Res. Comm. Chem. Pathol. Pharmacol., 34: 345-349). The circulating tumor cells in this model setting represent a mimicry of situations frequently found in tumor patients when residual tumor cells are circulating in a patient's body and finally invade and home in various organs to grow as metastatic tumors. The inhibition of such minimal residual tumor diseases is one of the major aims of modern tumor therapy and can be experimentally examined in the in vivo model used here. Renca cells and the transfected cell clone Renca-lacZ (encoding for β-galactosidase) were grown in RPMI-1640 supplemented with 10% fetal calf serum (FCS). For metastasis formation in recipient mice […] Renca-lacZ cells in 100 μl PBS were injected into the lateral tail vein of female Balb/c mice at 4 to 6 weeks of age. […] Metastatic surface nodules were analyzed under a dissecting microscope and representative pictures were taken and are presented in FIG. 9.

For series [2] the following is noted: used as an antiepileptic drug during pregnancy; cited from earlier work.
Series [3] has as its system DU-145 prostate cancer cells. As to the kind of experiment: SRB-assay, reduction in total cellular biomass. It is filed as cell-based, human. The protocol:
(§1) The reduction in cellular biomass was measured by SRB-assay. For this assay cells were seeded in 96 well culture dishes at densities between 3000 and 8000 cells per well. […] Cultures were fixed with cold TCA producing a final TCA concentration of 10%. After 1 hour of incubation at 4° C. the cells were washed five times with water and air dried. Fixed cells were stained for 30 minutes with 0,4% (wt/vol) Sulforhodamine B (SRB) dissolved in 1% acetic acid and washed four times with 1% acetic acid to remove unbound dye. After air drying bound dye was solubilized with 10 mM unbuffered Tris base (pH 10,5) for 5 minutes. Optical densities were read on a Titertek Multiskan Plus spectrophotometric plate reader at 550 nm. Six test wells for each dose-response were set in parallel with 12 growth control wells per cell line. A measure of the cell population density at time 0 (To; the time at which the drug was added) was also made from 12 extra reference wells of cells fixed with TCA just prior to drug addition to the test plates. Background OD of complete medium with 5% FBS fixed and stained as described above was also determined in 12 separate wells. From the unprocessed OD data from each microtiter plate the background OD measurements (i.e. OD of complete medium plus stain and OD of cells at T0) were subtracted thus giving the reduction of cellular biomass of the cells.
(§2) The effect on the reduction in total cellular biomass was measured by SRB-assay (see example 1 for assay and read-out procedure details).
(§3) Results using MCF-7 estrogen-dependent breast cancer cells are presented in FIG. 18 and using DU-145 prostate cancer cells in FIG. 19. […] The effect on cell growth was measured by SRB-assay as described in example 1.

Series [4] has as its system MCF-7 estrogen-dependent breast cancer cells. The experiment in a line: SRB-assay, reduction in total cellular biomass. It is filed as cell-based, human. As to the method: as §1, §2, §3
The test system of series [5] is PML-RAR expressing leukemic cells. The experiment in a line: survival of mice suffering from acute promyelocytic leukemia. The series is classed as in vivo. As to the method:
Mice that developed leukemia after inoculation with PML-RAR expressing cells were sacrificed. Single-cell suspensions of spleenocytes were prepared, and secondary recipient mice were reinoculated with 10^7 cells.
The numbers in parentheses indicate the number of mice in the representative experiment shown.

[6] abbreviates: VPA in combination with 100 nM 1α,25 Dihydroxyvitamin D3, 48 hours, vs either alone.

With `CCCC(CCC)C(=O)O` [VPA, 2-propylpentanoic acid], the “formation of lung metastasis (number and size of metastatic nodules)” value in series [1] is listed as “effectively inhibited the formation of lung metastasis”. The “birth defects (neural tube closure defects and other malformations) in born children” value in series [2] was “a few percent”. For the same compound, the “reduction of cellular biomass” value in series [3] (1 mM VPA in combination with lower concentrations of cis Platinum, 48 hours) is “synergistic reduction of cellular biomass”. For the same compound, the “reduction in cellular biomass” value in series [3] (setting [6]) was “at least additive reduction in cellular biomass”; in series [4] (0.75 mM VPA in combination with Paclitaxel, 48 hours, compared to either alone) it was “clear additive reduction in cellular biomass”; in series [4] (setting [6]), “at least additive reduction in cellular biomass”. Moreover, the “effect of the combination treatment” value in series [4] (VPA in combination with 100 nM 1α,25 Dihydroxyvitamin D3, 48 hours) is listed as “slight synergistic effect”. The “leukemic blasts in peripheral blood, bone marrow, spleen” value in series [5] (combination of retinoic acid and VPA, entire duration of the treatment) is on record as “no leukemic blasts were observed”. Moreover, the “survival of leukemic mice” value in series [5] (combination of retinoic acid pellet and VPA 400 mg/kg I.P. every 12 hours) is reported as “greatest extension of survival”; in series [5] (single agent: retinoic acid pellets subcutaneously, VPA 400 mg/kg I.P. every 12 hours), “significantly extended survival”.
